Results: patent publication US20260216166A1, “COMPOUND FOR TREATMENT OF ERECTILE DYSFUNCTION” (Initiator Pharma A/S, priority 2023, published 2026)
Entries after “also recorded” stand apart in the source; their conditions may differ. Like-named read-outs stand apart in the source and are kept apart here.

Experiments:
[1] = tested on: anaesthetized rats; assay: Intracavernous pressure / spontaneous erections in anaesthetized rats; type: in vivo, rat
Description: For in vivo erectile physiology studies, rats were anaesthetized with pentobarbital sodium (Sygehus Apoteket, Aarhus, Denmark; 50 mg/kg) given intraperitoneally. During the experiment, the rats breathed spontaneously; the body temperature was monitored continuously and was maintained at 37° C. With a midline incision in the perineum, the base of the penis, enclosed by striated muscles, was exposed. The ischiocavernous muscle covering the crus corpus cavernosum was divided on one side, and entrance to the underlying tunica albuginea was given. A 25-gauge needle attached to a heparinized (100 IE ml-1) polyethylene catheter was inserted into the crus corpus cavernosum to measure intracavernous pressure (ICP). A heparinized polyethylene catheter (PE 50) was introduced into the carotid artery to measure mean arterial pressure (MAP). Continuous direct measurements of MAP and ICP were performed with transducers (Disposable BP Transducer, ADInstruments, UK), and registered and analysed on a computerized data acquisition system (PowerLab, ADInstruments).
A stabilizing period of 20-30 min was allowed before registration of basal ICP and MAP. Through a lower abdominal incision, the cavernous nerve was isolated at the lateral aspect of the prostate, and electrical stimulation was performed with a slender bipolar platinum electrode, which was connected to a S48 stimulator (Grass Instrument Co., Boston, MA, U.S.A.). To measure the maximum amplitude of the erectile response, a first stimulation of the cavernous nerve (square wave pulses of 6 Volts, 10 Hz, 1 ms pulse duration for 30 s) was performed.
IP2015, sildenafil, clozapine or vehicle were administered by injection in the jugular vein in volumes of maximum 200 μl. […] The observation period of spontaneous erection after injection of IP2015 was 30 min. Clozapine (1 mg/kg) or sildenafil (1 mg/kg) were administered 30 or 10 min prior to 1 mg/kg IP2015 injection, respectively. One group was injected with vehicle alone.
To investigate the involvement of proximal neuronal pathways in the effect of IP2015, mechanical denervation was performed. For mechanical denervation the isolated cavernous nerve was cut distal to the major pelvic ganglion. Absence of erectile response to electrical stimulation verified the efficacy of mechanical denervation.

[2] = Phase I ascending single oral dose pharmacokinetics in healthy male subjects; type: in vivo, human; conditions: for half-life / Tmax: male, human, plasma
Description: The study was a Phase I, randomised, double-blind, placebo-controlled, ascending single oral dose, safety, tolerability, pharmacokinetic (PK) and pharmacodynamics (PD) study of IP2015 in healthy male subjects.
Each subject received one oral dose of IP2015 or matched placebo. The starting dose of IP2015 was 0.01 mg in Cohort 1. The dose level was to be escalated to a maximum of 0.05 mg in Cohort 2 and a maximum of 0.2 mg in Cohort 3. The doses in the remaining five cohorts were to be determined based on the dose escalation criteria. In every cohort, no more than 2 subjects were dosed on the first dosing day (1 active; 1 placebo) such that no more than 1 subject received an active IP2015 dose for the first time at each dose level.
The IP2015 or matched placebo was administered once on the morning of Day 1 as an oral solution in the fasted state. The dose was taken with 240 ml of water at room temperature. Subjects/participants were fasted overnight prior to dosing until 4 hours postdose. Water was allowed ad libitum except for 1 hour before and 1 hour after dosing.
The doses used in each cohort were as follows: • Cohort 1-0.01 mg • Cohort 2-0.05 mg • Cohort 3-0.2 mg • Cohort 4-0.6 mg • Cohort 5-1.8 mg • Cohort 6-5.4 mg • Cohort 7-16.2 mg • Cohort 8-10 mg
The study also evaluated plasma PK concentrations and parameters including but not limited to: area under the plasma concentration vs time curve (AUC), from time zero to the last quantifiable concentration (AUC0-t), AUC from zero to infinity (AUC0-∞), observed maximum plasma concentration (Cmax), time to reach maximum plasma concentration (tmax) and terminal elimination half-life (T½) in healthy male subjects. Blood samples for the determination of plasma concentrations of IP2015 were collected at predose, and 0.25, 0.5, 1, 1.5, 2, 3, 4, 6, 8, 12, 16, 24, 36 and 48 hours postdose.
(§1) Safety parameters were listed and summarised using descriptive statistics. Pharmacokinetic parameter estimates were calculated using noncompartmental methods. Pharmacokinetic data were listed for each subject/patient and summarised by descriptive statistics.
Dose proportionality was analysed for Part A with a linear regression model using the logarithm of a PK parameter as responsible variable and the logarithm of the dose as the independent variable. The linear regression model can be expressed as: […]
The above model was applied to the following PK parameters; AUC0-t, AUC0-∞ and Cmax. Based on the linear regression model, the dose proportionality coefficient (slope) and its two-sided 90% confidence interval (CI) were estimated. Dose proportionality was declared if the 90% CI for the slope was completely contained in the following range 16: 1+log (0.5)/log (r), 1+log (2)/log (r), where r is the high dose/low dose.

[3] = tested on: male patients with ED; assay: Phase II single oral dose safety in male patients with ED; type: in vivo, human
Description: The study was an exploratory Phase II, randomised, placebo-controlled, double-blind, crossover study, investigating the effects of a single oral dose of IP2015 on erectile function in males with ED. A dose level of 10 mg was selected. Patients were enrolled into two cohorts. Both cohorts participated in two periods (Period 1 and Period 2) and received a single dose of IP2015 and a single dose of placebo.
The study evaluated the efficacy data from RigiScan assessments in male patients with ED and the clinical safety data from AE reporting, 12-lead ECGs, vital signs, physical examinations and clinical laboratory evaluations in male patients with ED.
as §1

[4] = 0.2 to 16.2 mg single dose range
[5] = overall, crossover 10 mg IP2015 and placebo
[6] = overall, crossover 10 mg IP2015 and placebo, 12 patients

## COc1cc2ccc(OC3CC4CCC(C3)N4)cc2oc1=O (stereo not drawn) [IP2015, 7-[(8-azabicyclo[3.2.1]octan-3-yl)oxy]-3-methoxy-chromen-2-one]
[1]; anaesthetized rats, 0.1, 1, and 10 mg/kg in the jugular vein, in contrast to vehicle
  intracavernosal pressure: induced transient increases in intracavernosal pressure corresponding to erections; also recorded: dose-dependent increases in intracavernous pressure
[1]; anaesthetized rats, IP2015 administration
  responses to electrical field stimulation (EFS) of the cavernous nerve: without changing the responses to EFS
[1]; anaesthetized rats, compared to vehicle
  magnitude of erectile responses, ICP increases as percentage of MAP: significantly increased compared to vehicle
[1]; anaesthetized rats, i.v. 0.1, 1, 10 mg/kg
  frequency, duration, and magnitude of spontaneous erections: dose-dependently increased the number and the duration of spontaneous erections
[1]; anaesthetized rats, mechanical denervation
  IP2015-induced erectile responses after cutting the cavernosal nerve: inhibited
[1]; direct intracavernosal injection
  penile pressure: increased penile pressure
[2]; [4]
  increase of systemic exposure with dose based on AUC0-t: greater than dose-proportional manner
  increase of systemic exposure with dose based on AUC0-∞ and Cmax: slightly more than dose-proportional manner
[2]; healthy males, 0.2 mg
  subjects with plasma concentrations below the LLOQ: 3/7
[2]; healthy males, single oral 0.01 mg and 0.05 mg
  plasma concentrations of IP2015: below the LLOQ for all subjects
[2]; oral, healthy males, 0.6 mg, calculated for 1/6 subjects, read-out: mean t½ (converted)
  half-life: 14.5 h
[2]; oral, healthy males, 1.8 mg, calculated for 3/6 subjects, read-out: mean t½ (converted)
  half-life: 16.1 h
[2]; oral, healthy males, across all dose levels, read-out: tmax range
  Tmax: 1 to 6 h
[2]; oral, healthy males, range of means across 5.4 mg to 16.2 mg doses, read-out: mean T½
  half-life: 23.1 to 26.3 h
[2]; healthy males, range of medians across single oral doses 0.2-16.2 mg, read-out: median tmax
  Tmax: 2.25 to 5 h
[3]; 10 mg, 8 hours postdose
  heart rate, increase from baseline: 14.56 bpm
[3]; male patients with ED, 10 mg
  RR, PR, QRS, QT and QTcF intervals, IP2015 versus placebo: no significant treatment-related differences
  haematology, serum biochemistry or urinalysis data: no significant treatment- or dose-related trends
  standing and supine pulse rate: apparent treatment-related increase
  systolic blood pressure, diastolic blood pressure and oral temperature, IP2015 versus placebo: no significant treatment-related differences
[3]; [5]
  deaths or SAEs: No deaths or SAEs were reported
  severity of TEAEs: All events were mild in severity
[3]; [6]
  number of TEAEs: 19
  patients experiencing TEAEs: 9 (75.0%)
